Consider 31 compounds from patent US8765779B2, “Tricyclic derivatives and their pharmaceutical use and compositions” (Cephalon, Inc., priority 2009, dated 2014).

Counter-ions that a name gives are not always drawn.

The compound `CCCCCOc1cccc(S(=O)(=O)c2ccc3c(c2)OC2CNCCC32)c1` (stereo not shown) (as salt: HCl) [Example 557] displayed a melting point of 199 to 201 °C.

Compound `Cc1c(OCC2CCOCC2)cccc1S(=O)(=O)c1ccc2c(c1)OC1CNCCC21` (stereo not shown) (as salt: HCl) [Example 582] returned a melting point of 201 to 202 °C.

Take `O=S(=O)(c1cccc(OCC(F)F)c1)c1ccc2c(c1)OC1CNCCC21` (stereo not shown) (as salt: HCl) [Example 578]: the melting point lay in the range of 263 to 266 °C. The compound `CC(C)Oc1cccc(S(=O)(=O)c2ccc3c(c2)OC2CNCCC32)c1F` (stereo not shown) (as salt: HCl) [Example 481] came in with a melting point of 221 to 223 °C. Under `CC1(C)CNC2(CCOC2)c2oc3cc(S(=O)(=O)c4cccc(F)c4)ccc3c21` (racemic) (as salt: HCl) [Example 46, 7-[(3-fluorophenyl)sulfonyl]-4,4-dimethyl-3,4,4′,5′-tetrahydro-2H-spiro[1-benzofuro[2,3-c]pyridine-1,3′-furan]] stands 263 to 268 °C; under `CC(C)Oc1cccc(S(=O)(=O)c2ccc3c4c(oc3c2)C2(CCOC2)NCC4)c1` (single isomer, unassigned) (as salt: HCl) [Example 32, 7-{[3-(propan-2-yloxy)phenyl]sulfonyl}-3,4,4′,5′-tetrahydro-2H-spiro[1-benzofuro[2,3-c]pyridine-1,3′-furan]], 259 to 261 °C (dec.); under `CCC1(C)NCCc2c1oc1cc(S(=O)(=O)c3cccc(F)c3)ccc21` (racemic) (as salt: HCl) [Example 27, 1-ethyl-7-[(3-fluorophenyl)sulfonyl]-1-methyl-1,2,3,4-tetrahydro[1]benzofuro[2,3-c]pyridine], greater than 300 °C. Under `CC1(C)NCCc2c1oc1ccc(S(=O)(=O)c3cccc(F)c3)cc21` (as salt: HCl) [Example 42, 6-[(3-fluorophenyl)sulfonyl]-1,1-dimethyl-1,2,3,4-tetrahydro[1]benzofuro[2,3-c]pyridine] stands greater than 200 °C. For the compound `CC12CCNCC1Oc1ccc(S(=O)(=O)c3ccccc3)cc12` (stereo not shown) (as salt: hydrochloride) [Example 62, 4a-Methyl-6-(phenylsulfonyl)-1,2,3,4,4a,9a-hexahydro[1]benzofuro[2,3-c]pyridine hydrochloride], the melting point was 236 to 238 °C (dec.).

With `C#CCOc1cccc(S(=O)(=O)c2ccc3c(c2)OC2CNCCC32)c1` (stereo not shown) (as salt: HCl) [Example 549], the melting point fell in the range of 174 to 175 °C.

Turning to `CC(C)Oc1cc(OC(CO)CCl)cc(S(=O)(=O)c2ccc3c(c2)OC2CNCCC32)c1` (stereo not shown) (as salt: HCl) [Example 589], the melting point is 211 to 213 °C (dec.).

On to `CC(C)CC1(C)NCCc2c1oc1cc(S(=O)(=O)c3cccc(F)c3)ccc21` (racemic) (as salt: HCl) [Example 36, 7-[(3-fluorophenyl)sulfonyl]-1-methyl-1-(2-methylpropyl)-1,2,3,4-tetrahydro[1]benzofuro[2,3-c]pyridine], for which the melting point lay within 284 to 286 °C. Under `Cc1ccnc(S(=O)(=O)c2ccc3c(c2)OC2CNCCC32C)n1` (racemic) (as salt: HCl) [Example 7, 4a-methyl-7-[(4-methylpyrimidin-2-yl)sulfonyl]-1,2,3,4,4a,9a-hexahydro[1]benzofuro[2,3-c]pyridine] stands 199 to 201 °C; under `O=S(=O)(c1cccc(OCC2CCOCC2)c1)c1ccc2c(c1)OC1CNCCC21` (stereo not shown) (as salt: HCl) [Example 570, 7-{[3-(tetrahydro-2H-pyran-4-ylmethoxy)phenyl]sulfonyl}-1,2,3,4,4a,9a-hexahydro[1]benzofuro[2,3-c]pyridine], 188 to 190 °C.

As to `Cc1c(OCc2cccnc2)cccc1S(=O)(=O)c1ccc2c(c1)OC1CNCCC21` (stereo not shown) (as salt: HCl) [Example 566], the melting point was in the range of 179 to 182 °C. Regarding `O=S1(=O)CCC2(CC1)NCCc1c2oc2cc(S(=O)(=O)c3cccc(F)c3)ccc12` (as salt: HCl) [Example 38, 7-[(3-fluorophenyl)sulfonyl]-2′,3,3′,4,5′,6′-hexahydro-2H-spiro[1-benzofuro[2,3-c]pyridine-1,4′-thiopyran] 1′,1′-dioxide], the melting point was 298 to 300 °C (dec.).

As for `Cc1cccc(S(=O)(=O)c2ccc3c4c(oc3c2)C(C)(C)NCC4)n1` (as salt: HCl) [Example 19, 1,1-dimethyl-7-[(6-methylpyridin-2-yl)sulfonyl]-1,2,3,4-tetrahydro[1]benzofuro[2,3-c]pyridine], the melting point was in the range of 305 to 310 °C. In turn, `O=S(=O)(c1cccc(OCc2cccnc2)c1)c1ccc2c(c1)OC1CNCCC21` (stereo not shown) (as salt: HCl) [Example 559] yielded a melting point of 167 to 171 °C. For the compound `O=S(=O)(c1cc(F)cc(OCC2CCOCC2)c1)c1ccc2c(c1)OC1CNCCC21` (stereo not shown) (as salt: HCl) [Example 591], the melting point lay in the range of 203 to 204 °C. `COc1cc(OCC2CCOCC2)cc(S(=O)(=O)c2ccc3c(c2)OC2CNCCC32)c1` (stereo not shown) (as salt: HCl) [Example 584] came in with a melting point of 207 to 208 °C.

On to `COc1cc(OC)cc(S(=O)(=O)c2ccc3c(c2)OC2CNCCC32C)c1` (stereo not shown) (as salt: HCl) [Example 490], for which the melting point was in the range of 250 to 252 °C. Take `O=S(=O)(c1cccc(OCC2CCOCC2)c1)c1ccc2c(c1)OC1CNCCC21` (single isomer, unassigned) (as salt: HCl) [Example 548, 7-{[3-(Tetrahydro-2H-pyran-4-ylmethoxy)phenyl]sulfonyl}-1,2,3,4,4a,9a-hexahydro[1]benzofuro[2,3-c]pyridine]: the melting point lay within 187 to 189 °C.

Consider `Cn1cnc(COc2cccc(S(=O)(=O)c3ccc4c(c3)OC3CNCCC43)c2)n1` (stereo not shown) (as salt: HCl) [Example 560], for which the melting point is 187 to 190 °C. `O=S(=O)(c1cccc(OCc2ccncc2)c1)c1ccc2c(c1)OC1CNCCC21` (stereo not shown) (as salt: HCl) [Example 561]: the melting point was in the range of 182 to 185 °C. The compound `COc1c(F)cc(F)cc1S(=O)(=O)c1ccc2c(c1)OC1CNCCC21C` (stereo not shown) (as salt: HCl) [Example 486] came in with a melting point of 259 to 261 °C. Turning to `COc1cc(OC2CCCC2)cc(S(=O)(=O)c2ccc3c(c2)OC2CNCCC32)c1` (stereo not shown) (as salt: HCl) [Example 586], the melting point fell in the range of 239 to 241 °C. `CN(C)C(=O)c1cccc(S(=O)(=O)c2ccc3c4c(oc3c2)CNCC4)c1` (as salt: hydrochloride) [Example 474, N,N-Dimethyl-3-(1,2,3,4-tetrahydro[1]benzofuro[2,3-c]pyridin-7-ylsulfonyl)benzamide hydrochloride] had a melting point of 262 to 265 °C. On to `O=S(=O)(c1cc(F)cc(OCc2ccccc2)c1)c1ccc2c(c1)OC1CNCCC21` (stereo not shown) (as salt: HCl) [Example 484], for which the melting point fell in the range of 171 to 172 °C. In turn, `CC(C)Oc1cc(OCCO)cc(S(=O)(=O)c2ccc3c(c2)OC2CNCCC32)c1` (stereo not shown) (as salt: HCl) [Example 590] gave a melting point of 205 to 208 °C. Compound `NC(=O)COc1cccc(S(=O)(=O)c2ccc3c(c2)OC2CNCCC32)c1` (stereo not shown) (as salt: HCl) [Example 563] returned a melting point of 237 to 239 °C.

With `COCCCOc1cccc(S(=O)(=O)c2ccc3c(c2)OC2CNCCC32)c1` (stereo not shown) (as salt: HCl) [Example 576], the melting point was in the range of 179 to 181 °C.
